According to patent US8399683B2 (TetraLogic Pharmaceuticals, priority 2008, dated 2013):

Tests used:
XIAP BIR-3 = target: T1, XIAP BIR-3 (Homo sapiens, UniProt P98170); test: Fluorescence polarization binding affinity to XIAP BIR-3 (competition with AbuRPF-K(5-Fam)-NH2); conditions: 5 nM labeled peptide, 40 nM BIR3, 15 min at RT, pH 7.5; reported as ranges
T1 construct: 40 nM of the respective IAP BIR3
In short: (§1)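 Test peptides at varied concentrations competed with 5 nM fluorescent Smac-mimetic tracer for 40 nM BIR3 domain, 15 min at RT in 0.1M potassium phosphate pH 7.5 with […] bovine g-globulin. Polarization (mP) read at 485/520 nm; KD reported in bins (A=<0.1 μM, B=0.1–1 μM, C>1–10 μM, D=>10 μM).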

cIAP-1 BIR-3 = cIAP-1 BIR-3 (Homo sapiens, UniProt Q13490); test: Fluorescence polarization binding affinity to cIAP-1 BIR-3 (competition with AbuRPF-K(5-Fam)-NH2); conditions: 5 nM labeled peptide, 40 nM BIR3, 15 min at RT, pH 7.5; reported as ranges; read-out: KD (c-IAP-1 BIR3)
In short: as §1

SK-OV-3 cells = test: Growth inhibition of ovarian cancer cell line SK-OV-3 (MTT assay, cell survival); type: cell-based; conditions: Homo sapiens, drug concentration that results in 50% cell survival, 72 hrs incubation, reported as ranges
In short: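 After overnight seeding in McCoy's medium with 10% FBS, SK-OV-3 cells were exposed to compound at 0.003-10 μM for 72 hrs at 37° C. MTT was then added for 3 h, with DMSO solubilization and OD read at 535 nm. CC50 is the concentration giving 50% survival relative to untreated control, reported as ranges.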

Sequence of cIAP-1 BIR-3 (Q13490 266-352 limits assumed): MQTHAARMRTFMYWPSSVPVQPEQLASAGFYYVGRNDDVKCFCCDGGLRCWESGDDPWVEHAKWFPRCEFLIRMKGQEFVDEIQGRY
T1 sequence (P98170 241-356 limits assumed): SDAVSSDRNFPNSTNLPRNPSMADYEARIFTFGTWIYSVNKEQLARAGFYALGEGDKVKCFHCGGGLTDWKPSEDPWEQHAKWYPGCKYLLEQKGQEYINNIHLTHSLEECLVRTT

## CN[C@@H](C)C(=O)N[C@@H](CO)C(=O)N1CC[C@@H]2[C@H]1[C@@H](c1c[nH]c3cc(F)ccc13)CN2c1ncccn1 [Example 80, N-{2-[6-(6-Fluoro-1H-indol-3-yl)-4-pyrimidin-2-yl-hexahydro-pyrrolo[3,2-b]pyrrol-1-yl]-1-hydroxymethyl-2-oxo-ethyl}-2-methylamino-propionamide]
XIAP BIR-3
  Kd: < 100 nM
cIAP-1 BIR-3
  Kd: < 100 nM
SK-OV-3 cells
  CC50: < 100 nM

## CN[C@@H](C)C(=O)N[C@@H](COC)C(=O)N1CC[C@@H]2[C@H]1[C@@H](c1c[nH]c3cc(F)ccc13)CN2c1ncccn1 [Example 81, N-{2-[6-(6-Fluoro-1H-indol-3-yl)-4-pyrimidin-2-yl-hexahydro-pyrrolo[3,2-b]pyrrol-1-yl]-1-methoxymethyl-2-oxo-ethyl}-2-methylamino-propionamide]
XIAP BIR-3
  Kd: < 100 nM
cIAP-1 BIR-3
  Kd: < 100 nM
SK-OV-3 cells
  CC50: < 100 nM

## CN[C@@H](C)C(=O)N[C@H](C(=O)N1CC[C@@H]2[C@H]1[C@@H](c1c[nH]c3cc(F)ccc13)CN2c1ncccn1)[C@@H](C)O [Example 82, N-{1-[6-(6-Fluoro-1H-indol-3-yl)-4-pyrimidin-2-yl-hexahydro-pyrrolo[3,2-b]pyrrole-1-carbonyl]-2-hydroxy-propyl}-2-methylamino-propionamide]
XIAP BIR-3
  Kd: < 100 nM
cIAP-1 BIR-3
  Kd: < 100 nM
SK-OV-3 cells
  CC50: < 100 nM

## CN[C@@H](C)C(=O)N[C@H](C(=O)N1CC[C@@H]2[C@H]1[C@@H](c1c[nH]c3cc(F)ccc13)CN2c1ncccn1)[C@@H](C)OC [Example 83, N-{1-[6-(6-Fluoro-1H-indol-3-yl)-4-pyrimidin-2-yl-hexahydro-pyrrolo[3,2-b]pyrrole-1-carbonyl]-2-methoxy-propyl}-2-methylamino-propionamide]
XIAP BIR-3
  Kd: < 100 nM
cIAP-1 BIR-3
  Kd: < 100 nM
SK-OV-3 cells
  CC50: < 100 nM

## CN[C@@H](C)C(=O)N[C@H](C(=O)N1C[C@@H](O)[C@@H]2[C@H]1[C@@H](c1c[nH]c3cc(F)ccc13)CN2C(=O)OCc1ccccc1)C1CCCCC1 [Example 84, 4-[2-Cyclohexyl-2-(2-methylamino-propionylamino)-acetyl]-3S-(6-fluoro-1H-indol-3-yl)-6-hydroxy-hexahydro-pyrrolo[3,2-b]pyrrole-1-carboxylic acid benzyl ester]
XIAP BIR-3
  Kd: < 100 nM
cIAP-1 BIR-3
  Kd: < 100 nM
SK-OV-3 cells
  CC50: < 100 nM

## CN[C@@H](C)C(=O)N[C@H](C(=O)N1C[C@@H](O)[C@H]2NC[C@H](c3c[nH]c4cc(F)ccc34)[C@H]21)C1CCCCC1 [Example 85]
XIAP BIR-3
  Kd: 100 to 1000 nM
cIAP-1 BIR-3
  Kd: < 100 nM
SK-OV-3 cells
  CC50: 100 to 1000 nM

## CN[C@@H](C)C(=O)N[C@H](C(=O)N1C[C@@H](O)[C@H]2NC[C@@H](c3c[nH]c4cc(F)ccc34)[C@H]21)C1CCCCC1 [Example 86, N-{1-Cyclohexyl-2-[6R-(6-fluoro-1H-indol-3-yl)-3-hydroxy-hexahydro-pyrrolo[3,2-b]pyrrol-1-yl]-2-oxo-ethyl}-2-methylamino-propionamide]
XIAP BIR-3
  Kd: > 10000 nM
cIAP-1 BIR-3
  Kd: 100 to 1000 nM
SK-OV-3 cells
  CC50: > 10000 nM

## CN[C@@H](C)C(=O)N[C@H](C(=O)N1CC[C@H]2NC[C@@H](c3c[nH]c4cc(F)ccc34)[C@H]21)C1CCCCC1 [Example 87]
XIAP BIR-3
  Kd: > 10000 nM
cIAP-1 BIR-3
  Kd: 1000 to 10000 nM
SK-OV-3 cells
  CC50: > 10000 nM

## C[C@H](N)C(=O)N[C@H](C(=O)N1CC[C@H]2NC[C@H](c3c[nH]c4cc(F)ccc34)[C@H]21)C1CCCCC1 [Example 88]
XIAP BIR-3
  Kd: < 100 nM
cIAP-1 BIR-3
  Kd: < 100 nM
SK-OV-3 cells
  CC50: > 10000 nM

## CN[C@@H](C)C(=O)N[C@H](C(=O)N1CC[C@H]2NC[C@@H](c3c[nH]c4ccccc34)[C@H]21)[C@@H](C)OC [Example 89]
XIAP BIR-3
  Kd: > 10000 nM
cIAP-1 BIR-3
  Kd: 100 to 1000 nM
SK-OV-3 cells
  CC50: > 10000 nM

## CN[C@@H](C)C(=O)N[C@H](C(=O)N1CC[C@H]2NC[C@H](c3c[nH]c4ccccc34)[C@H]21)[C@@H](C)OC [Example 90]
XIAP BIR-3
  Kd: < 100 nM
cIAP-1 BIR-3
  Kd: < 100 nM
SK-OV-3 cells
  CC50: 1000 to 10000 nM
